Experimental data taken from US9163256B2, “Mutant receptors and their use in a nuclear receptor-based inducible gene expression system” (priority 2004, dated 2015).
Where two headings read alike, the source gives them in different places.

What was measured:
[1] = target: CfEcR-DEF mutant T52M (Choristoneura fumiferana, UniProt O77255, T335M); assay: GAL4-driven luciferase reporter assay in NIH3T3 cells; assay type: cell-based
Outline: (§1)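 Mouse NIH3T3 cells were treated with ligand in DMSO, then transfected with GAL4 luciferase reporter (0.16 μg/well) plus mutant CfEcR-DEF receptor constructs (0.04 μg each/well). Cells were kept at 37° C in 5% FBS and lysed 40 hours after ligand addition for dual-luciferase measurement. Fold induction = ligand RLU ÷ DMSO RLU.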

[2] = target: CfEcR-DEF mutant M125V (Choristoneura fumiferana, UniProt O77255, M408V); assay: as above; assay type: cell-based
Outline: as §1

[3] = target: CfEcR-DEF mutant L132E (Choristoneura fumiferana, UniProt O77255, L415E); assay: as above; assay type: cell-based
Outline: as §1

[4] = target: CfEcR-DEF mutant M219A (Choristoneura fumiferana, UniProt O77255, M502A); assay: as above; assay type: cell-based
Outline: as §1

[5] = target: CfEcR-DEF mutant L223K (Choristoneura fumiferana, UniProt O77255, L506K); assay: as above; assay type: cell-based
Outline: as §1

[6] = target: CfEcR-DEF mutant L234W (Choristoneura fumiferana, UniProt O77255, L517W); assay: as above; assay type: cell-based
Outline: as §1

[7] = target: CfEcR-DEF mutant L234R (Choristoneura fumiferana, UniProt O77255, L517R); assay: as above; assay type: cell-based
Outline: as §1

[8] = target: CfEcR-DEF mutant T52R (Choristoneura fumiferana, UniProt O77255, T335R); assay: as above; assay type: cell-based
Outline: as §1

[9] = target: CfEcR-DEF mutant L223R (Choristoneura fumiferana, UniProt O77255, L506R); assay: as above; assay type: cell-based
Outline: as §1

[10] = target: CfEcR-DEF mutant M125G (Choristoneura fumiferana, UniProt O77255, M408G); assay: as above; assay type: cell-based
Outline: as §1

[11] = target: CfEcR-DEF mutant L132M (Choristoneura fumiferana, UniProt O77255, L415M); assay: cell-based; assay type: cell-based; settings: for Emax: NIH3T3, 40 h, read-out: Rel Max FI, mutant L132M
Procedure: (§2) This construct was prepared in the same way as in switch 1.1 above except wild-type CfEcR-DEF was replaced with mutant CfEcR-DEF comprising a ligand binding domain comprising a substitution mutation selected from Table 1 below.
(§3) DNAs were transfected into mouse NIH3T3 cells (ATCC) as follows. Standard methods for culture and maintenance of the cells were followed. Cells were harvested and plated 96-well plates at 2,500 cells per well, in 50 μL of growth medium containing 10% fetal bovine serum (FBS). Twenty-four hours later, the cells were treated with 35 μL of serum-free growth medium containing either dimethylsulfoxide (DMSO; control) or a DMSO solution of ligand. The cells were then transfected using Superfect (Qiagen Inc.) transfection reagent. For each well, 0.625 μL of Superfect was mixed with 14.2 μL of serum-free growth medium. 0.16 μg of reporter construct and 0.04 μg of each receptor construct were added to the transfection reagent mix. The contents of the transfection mix were mixed in a vortex mixer and let stand at room temperature for 30 minutes. At the end of incubation, 15 μL of transfection mix was added to the cells. The cells were maintained at 37° C. and 5% CO2 for 48 hours in 5% FBS.
(§4) Reporter Assays: Cells were harvested 40 hours after adding ligands. 125 μL of passive lysis buffer (part of Dual-Luciferase reporter assay system from Promega Corporation) were added to each well of the […] plate. The plates were placed on a rotary shaker for 15 minutes. Twenty μL of lysate were assayed. Luciferase activity was measured using Dual-Luciferase reporter assay system from Promega Corporation following the manufacturer's instructions. Fold induction (FI) activities were calculated by dividing relative light units (“RLU”) in ligand treated cells with RLU in DMSO treated cells (untreated control).

[12] = target: CfEcR-DEF mutant F48W (Choristoneura fumiferana, UniProt O77255, F331W); assay: cell-based; parameters: Concentration (mM) at max FI: unit not given here
Procedure: as §2, §3, §4

[13] = target: CfEcR-DEF mutant W238E (Choristoneura fumiferana, UniProt O77255, W521E); assay: cell-based; parameters: Concentration (mM) at max FI: unit not given here
Procedure: as §2, §3, §4

[14] = target: CfEcR-DEF mutant V128F (Choristoneura fumiferana, UniProt O77255, V411F); assay: cell-based; parameters: Concentration (mM) at max FI: unit not given here
Procedure: as §2, §3, §4

[15] = target: CfEcR-DEF mutant T52P (Choristoneura fumiferana, UniProt O77255, T335P); assay: cell-based; parameters: Concentration (mM) at max FI: unit not given here
Procedure: as §2, §3, §4

[16] = target: CfEcR-DEF mutant F109M (Choristoneura fumiferana, UniProt O77255, F392M); assay: cell-based; parameters: Concentration (mM) at max FI: unit not given here
Procedure: as §2, §3, §4

[17] = target: CfEcR-DEF mutant V96E (Choristoneura fumiferana, UniProt O77255, V379E); assay: cell-based; parameters: Concentration (mM) at max FI: unit not given here
Procedure: as §2, §3, §4

[18] = target: CfEcR-DEF mutant Y120M (Choristoneura fumiferana, UniProt O77255, Y403M); assay: cell-based; parameters: Concentration (mM) at max FI: unit not given here
Procedure: as §2, §3, §4

[19] = target: CfEcR-DEF mutant F48Y (Choristoneura fumiferana, UniProt O77255, F331Y); assay: cell-based; parameters: Concentration (mM) at max FI: unit not given here
Procedure: as §2, §3, §4

[20] = test system: CfEcR-DEF mutant N119F; assay: GAL4-driven luciferase reporter assay in NIH3T3 cells; assay type: cell-based, Choristoneura fumiferana
Procedure: as §2, §3, §4

[21] = NIH3T3, 40 h, read-out: Rel Max FI
[22] = NIH3T3, mouse, 40 h, read-out: GS-E ligand max FI (relative to DMSO)

CfEcR-DEF mutant F48Y, sequence (O77255 entry or part of it F331Y): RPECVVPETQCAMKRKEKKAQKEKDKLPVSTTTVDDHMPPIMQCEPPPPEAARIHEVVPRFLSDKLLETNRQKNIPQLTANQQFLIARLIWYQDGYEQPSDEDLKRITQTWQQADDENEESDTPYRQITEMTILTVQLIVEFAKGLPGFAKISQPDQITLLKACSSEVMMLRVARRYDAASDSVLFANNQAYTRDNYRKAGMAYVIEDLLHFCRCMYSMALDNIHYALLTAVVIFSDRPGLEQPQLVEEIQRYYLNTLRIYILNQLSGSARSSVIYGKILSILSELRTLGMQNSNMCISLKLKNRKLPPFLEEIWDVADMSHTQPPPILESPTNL
CfEcR-DEF mutant F48Y, sequence (P28702 299-449, further chain): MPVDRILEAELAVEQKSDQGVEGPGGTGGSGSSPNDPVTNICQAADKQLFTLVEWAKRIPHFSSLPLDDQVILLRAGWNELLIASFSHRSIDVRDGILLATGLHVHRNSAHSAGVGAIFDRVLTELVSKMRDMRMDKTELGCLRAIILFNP
CfEcR-DEF mutant L132M, sequence (O77255 entry or part of it L415M): as the sequence (O77255 entry or part of it F331Y) above, with Y125F, L209M counted along it
CfEcR-DEF mutant L132M, sequence (P28702 298-449, further chain): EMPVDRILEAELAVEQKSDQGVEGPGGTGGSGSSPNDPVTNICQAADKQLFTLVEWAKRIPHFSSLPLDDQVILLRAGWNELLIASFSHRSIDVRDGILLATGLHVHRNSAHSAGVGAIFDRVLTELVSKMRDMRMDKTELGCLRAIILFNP
CfEcR-DEF mutant V96E, sequence (O77255 entry or part of it V379E): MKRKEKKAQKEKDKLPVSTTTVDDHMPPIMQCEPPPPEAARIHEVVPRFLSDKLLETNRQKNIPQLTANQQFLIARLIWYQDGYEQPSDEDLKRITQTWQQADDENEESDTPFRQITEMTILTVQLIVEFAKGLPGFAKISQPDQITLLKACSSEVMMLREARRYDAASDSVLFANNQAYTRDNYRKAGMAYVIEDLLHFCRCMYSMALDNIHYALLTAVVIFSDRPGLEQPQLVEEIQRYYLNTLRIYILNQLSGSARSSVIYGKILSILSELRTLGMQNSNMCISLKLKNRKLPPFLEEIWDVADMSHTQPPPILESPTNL
CfEcR-DEF mutant V96E, sequence (P28702 299-449, further chain): as the sequence (P28702 299-449, further chain) above
CfEcR-DEF mutant F48W, sequence (P28702 299-449): as the sequence (P28702 299-449, further chain) above
CfEcR-DEF mutant F48W, sequence (O77255 entry or part of it F331W): as the sequence (O77255 entry or part of it F331Y) above, with Y125W counted along it
CfEcR-DEF mutant W238E, sequence (P28702 299-449): as the sequence (P28702 299-449, further chain) above
CfEcR-DEF mutant W238E, sequence (O77255 entry or part of it W521E): as the sequence (O77255 entry or part of it V379E) above, with E161V, W303E counted along it
CfEcR-DEF mutant V128F, sequence (P28702 299-449): as the sequence (P28702 299-449, further chain) above
CfEcR-DEF mutant V128F, sequence (O77255 entry or part of it V411F): as the sequence (O77255 entry or part of it V379E) above, with E161V, V193F counted along it
CfEcR-DEF mutant Y120M, sequence (O77255 entry or part of it Y403M): as the sequence (O77255 entry or part of it V379E) above, with E161V, Y185M counted along it
CfEcR-DEF mutant Y120M, sequence (P28702 299-449, further chain): as the sequence (P28702 299-449, further chain) above
CfEcR-DEF mutant F109M, sequence (O77255 entry or part of it F392M): as the sequence (O77255 entry or part of it F331Y) above, with Y125F, F186M counted along it
CfEcR-DEF mutant F109M, sequence (P28702 299-449, further chain): as the sequence (P28702 299-449, further chain) above
CfEcR-DEF mutant T52P, sequence (P28702 298-449): as the sequence (P28702 298-449, further chain) above
CfEcR-DEF mutant T52P, sequence (O77255 entry or part of it T335P): as the sequence (O77255 entry or part of it F331Y) above, with Y125F, T129P counted along it

CCc1c(OC)cccc1C(=O)NN(C(=O)c1cc(C)cc(C)c1)C(C)(C)C [RG-102240, N-(2-ethyl-3-methoxybenzoyl)-N′-(3,5-dimethylbenzoyl)-N′-tert-butylhydrazine]
EC50 [1]: 6.74 µM | Emax ([1]; NIH3T3, 40 h, read-out: Rel MaxFI): 100% | EC50 [2]: 1.64 µM | Emax [2, 21]: 100% | EC50 [3]: 0.41 µM | Emax [3, 21]: 100% | EC50 [4]: 2.9 µM | Emax [4, 21]: 100% | EC50 [5]: 3.93 µM | Emax [5, 21]: 100% | EC50 [6]: 11.5 µM | Emax [6, 21]: 100% | EC50 [7]: 17.1 µM | Emax [7, 21]: 100% | EC50 [8]: 6.69 µM | Emax [8, 21]: 100% | EC50 [9]: 8.69 µM | Emax [9, 21]: 100% | EC50 [10]: 14.2 µM | Emax [10, 21]: 100% | Emax [11]: 100% | Emax ([11]; relative to max fold induction of GS-E ligand): 100% | maximal fold induction [11, 22]: 1520 | Concentration at max FI ([11]; mutant L132M, GS-E ligand): 10.00 mM | EC50 [12]: ~1 µM | Emax [12, 21]: 100% | maximal fold induction [12, 22]: 1640 | Concentration (mM) at max FI ([12]; mutant F48W, GS-E ligand): 33.3 | EC50 [13]: ~6 µM | Emax [13, 21]: 100% | maximal fold induction [13, 22]: 1020 | Concentration (mM) at max FI ([13]; mutant W238E, GS-E ligand): 33.3 | EC50 ([14]; EC50, mutant V128F): > 33 µM | Emax [14, 21]: 0% | maximal fold induction [14, 22]: 550 | Concentration (mM) at max FI ([14]; mutant V128F, GS-E ligand): 33.30 | EC50 [15]: ~10 µM | Emax [15, 21]: 100% | maximal fold induction [15, 22]: 301 | Concentration (mM) at max FI ([15]; mutant T52P, GS-E ligand): 33.3 | EC50 [16]: 0.66 µM | Emax [16, 21]: 100% | maximal fold induction [16, 22]: 1480 | Concentration (mM) at max FI ([16]; mutant F109M, GS-E ligand): 3.3 | EC50 [17]: ~2 µM | Emax [17, 21]: 100% | maximal fold induction [17, 22]: 2960 | Concentration (mM) at max FI ([17]; mutant V96E, GS-E ligand): 33.30 | EC50 [18]: ~4 µM | Emax [18, 21]: 100% | maximal fold induction [18, 22]: 1710 | Concentration (mM) at max FI ([18]; mutant Y120M, GS-E ligand): 33.3 | EC50 [19]: 1.27 µM | Emax [19, 21]: 100% | maximal fold induction [19, 22]: 1360 | Concentration (mM) at max FI ([19]; mutant F48Y, GS-E ligand): 33.3 | Fold increase over WT ([20]; 1.6 nM ligand): 1.22 | Fold increase over WT ([20]; 8 nM ligand): 0.73 | Fold increase over WT ([20]; 40 nM ligand): 0.06 | Fold increase over WT ([20]; 200 nM ligand): 0.01 | Fold increase over WT ([20]; 1 μM ligand): 0.08 | Fold increase over WT ([20]; 5 μM ligand): 0.59

CC(C)CC[C@@H](O)[C@](C)(O)[C@H]1CC[C@@]2(O)C3=CC(=O)[C@@H]4C[C@@H](O)[C@@H](O)C[C@]4(C)[C@H]3CC[C@]12C [PonA, ponasterone A]
Rel Max FI ([11]; mutant L132M): 0.01 | Rel Max FI ([11]; mutant L132M, relative to max fold induction of GS-E ligand): 0.57 | EC50 ([12]; mutant F48W, read-out: EC50): ~10 µM | Rel Max FI ([12]; mutant F48W, relative to max fold induction of GS-E ligand): 0.65 | Rel Max FI ([13]; mutant W238E): 0 | EC50 ([13]; mutant W238E, read-out: EC50): > 33 µM | Rel Max FI ([14]; mutant V128F): 0.03 | EC50 ([14]; mutant V128F, read-out: EC50): > 33 µM | Rel Max FI ([15]; mutant T52P): 0.03 | EC50 ([15]; mutant T52P, read-out: EC50): > 33 µM | EC50 ([16]; mutant F109M, read-out: EC50): ~20 µM | Rel Max FI ([16]; mutant F109M, relative to max fold induction of GS-E ligand): 0.16 | Rel Max FI ([17]; mutant V96E): 0.02 | EC50 ([17]; mutant V96E, read-out: EC50): > 33 µM | Rel Max FI ([18]; mutant Y120M): 0.04 | EC50 ([18]; mutant Y120M, read-out: EC50): > 33 µM | EC50 ([19]; mutant F48Y, read-out: EC50): ~10 µM | Rel Max FI ([19]; mutant F48Y, relative to max fold induction of GS-E ligand): 0.33 | Fold increase over WT ([20]; 1.6 nM ligand): 1.33 | Fold increase over WT ([20]; 8 nM ligand): 1.7 | Fold increase over WT ([20]; 40 nM ligand): 9.42 | Fold increase over WT ([20]; 200 nM ligand): 6.50 | Fold increase over WT ([20]; 1 μM ligand): 3.00
